Assays:
[1] = test system: LPS-stimulated RAW 264.7 cells; assay: NO production by LPS-stimulated RAW 264.7 cells (Griess); assay type: cell-based; details: Mus musculus, RAW264.7, read-out: IC50 for the inhibition of NO production
Description: Four new compounds 1–4 were tested for potential anti-inflammatory activity by measuring the inhibition of the nitric oxide (NO) production. […] The IC50 values for the inhibition of NO production by compounds 1–4 are all > 50 μM. […] From the experimental results and literature data, the flavonoids in the title plant have better anti-inflammatory activity than ellagitannins, it may be the active ingredient corresponding to the anti-inflammatory effect of this plant.
The RAW 264.7 cells were cultivated in DMEM supplemented with 10% FBS at 37 °C in a humidified atmosphere of 5% CO2 for 24 h. Cells in 24-well plate (5 × 10^4 cells/well) were treated with 200 ng/mL LPS and the test compounds. After 22 h, the media were collected, and the level of nitrite was measured using the Griess Reagent System (Promega, Madison, WI, USA).

[2] = test system: mushroom tyrosinase; assay: Anti-tyrosinase activity, L-DOPA as substrate; assay type: biochemical; details: for IC50: IC50 ± SD, pH 6.8, read-out: Tyrosinase inhibitory activity IC50
Description: All compounds were investigated for potential tyrosinase inhibitory activity.
The anti-tyrosinase activities of the isolates were investigated according to the procedure described by Aoki et al. with slight modifications. […] Solution of L-DOPA at 5.0 mM, mushroom tyrosinase at 100 U/mL, as well as samples at different concentrations were prepared in phosphate buffer (pH 6.8). 20 µL of the sample solution and 10 µL of mushroom tyrosinase solution were mixed and pre-incubated at 37 °C for 10 min, then 40 µL of L-DOPA solution was added and incubated at 37 °C for 5 min. The absorbance was measured at 475 nm using the Spark 10M multimode microplate reader (Tecan Trading AG, Zurich, Switzerland). All assays were repeated three times and each time in triplicate. The percent inhibition of tyrosinase activity was calculated using the following formula:Tyrosinase inhibition (%) = [1 − (T − T0)/(C − C0)] × 100 where T represents the absorbance with sample and tyrosinase; T0 represents the absorbance with sample but no tyrosinase; C represents the absorbance with tyrosinase but no sample; C0 represents the absorbance without tyrosinase and sample.

[3] = cited from earlier work

For `CCOC(=O)C1(O)C(=O)C2=C3C(=O)OC(C2OCC)C2OC(=O)c4c(c(O)c(O)c(O)c4C31)-c1c(cc(O)c(O)c1O)C(=O)OC1COC(=O)c3cc(O)c(O)c(O)c3-c3c(cc(O)c(O)c3O)C(=O)OC12` (stereo not drawn) [Compound 1, Whiskey tannin C], the IC50 [1] was > 50 µM, the “tyrosinase inhibitory activity (in words)” value [2] was “weak” and the IC50 [2] was 426 ± 11.3 µM.

With `COc1c(O)cc(C(=O)O[C@@H]2O[C@H](COC(=O)c3cc(O)c(O)c(O)c3)[C@@H](O)[C@@H]3OC(=O)c4cc(O)c(O)c(O)c4-c4c(cc(O)c(O)c4O)C(=O)O[C@@H]23)cc1O` [Compound 2, 1-O-(4-methoxygalloyl)-6-O-galloyl-2,3-O-(S)-hexahydroxydiphenoyl-β-D-glucose] the IC50 [1] was > 50 µM and the IC50 [2] was 241 ± 6.23 µM.

In the case of `COc1cc(C(=O)OC[C@H]2O[C@@H](OC(=O)c3cc(O)c(O)c(O)c3)[C@@H]3OC(=O)c4cc(O)c(O)c(O)c4-c4c(cc(O)c(O)c4O)C(=O)O[C@H]3[C@@H]2O)cc(O)c1O` [Compound 3, 1-O-galloyl-6-O-(3-methoxygalloyl)-2,3-O-(S)-hexahydroxydiphenoyl-β-D-glucose], the IC50 [1] is reported as > 50 µM and the IC50 [2] is reported as 154 ± 3.63 µM.

In the case of `COc1cc(C(=O)OC[C@H]2O[C@@H](OC(=O)c3cc(O)c(O)c(O)c3)[C@@H]3OC(=O)c4cc(O)c(O)c(O)c4-c4c(cc(O)c(O)c4O)C(=O)O[C@H]3[C@@H]2O)ccc1O` [Compound 4, 1-O-galloyl-6-O-vanilloyl-2,3-O-(S)-hexahydroxydiphenoyl-β-D-glucose], the IC50 [1] is reported as > 50 µM and the IC50 [2] is reported as 125 ± 3.12 µM.

In the case of `O=c1c(O)c(-c2ccc(O)cc2)oc2cc(O)cc(O)c12` [Compound 7, kaempferol], the IC50 [2] is listed as 1900 ± 38.2 µM and the “anti-inflammatory activity (in words)” value [3] is listed as “have anti-inflammatory activity”.

For `C[C@@H]1O[C@@H](Oc2c(-c3ccc(O)cc3)oc3cc(O)cc(O)c3c2=O)[C@H](O)[C@H](O)[C@H]1O` [Compound 8, kaempferol-3-rhamnoside], the “tyrosinase inhibitory activity (in words)” value [2] is listed as “no significant”, the IC50 [2] is listed as > 2000 µM and the “anti-inflammatory activity (in words)” value [3] is listed as “have no anti-inflammatory activity”.

For `O=c1c(O)c(-c2ccc(O)c(O)c2)oc2cc(O)cc(O)c12` [Compound 10, quercetin], the “tyrosinase inhibitory activity (in words)” value [2] is listed as “significant” and the “anti-inflammatory activity (in words)” value [3] is listed as “have anti-inflammatory activity”.

For `C[C@@H]1O[C@@H](Oc2c(-c3ccc(O)c(O)c3)oc3cc(O)cc(O)c3c2=O)[C@H](O)[C@H](O)[C@H]1O` [Compound 11, quercetin-3-O-α-L-rhamnoside], the IC50 [2] is given as 98.2 ± 2.31 µM and the “anti-inflammatory activity (in words)” value [3] is given as “have no anti-inflammatory activity”.

For `C[C@@H]1O[C@@H](Oc2c(-c3cc(O)c(O)c(O)c3)oc3cc(O)cc(O)c3c2=O)[C@H](O)[C@H](O)[C@H]1O` [Compound 12, myricetin-3-O-α-L-rhamnopyranoside], the “tyrosinase inhibitory activity (in words)” value [2] is listed as “no significant”, the IC50 [2] is listed as 905 ± 20.4 µM and the “anti-inflammatory activity (in words)” value [3] is listed as “have anti-inflammatory activity”.
